We go through 2 compounds from US20090011951A1, “Method of Gene Screening With Yeast Having Ergosterol Synthase Undergoing Inducible Expression” (priority 2004, published 2009).

Structures are written as SMILES.

In one experiment the test system is yeast. To be noted: known action; cited from earlier work.
In experiment [1] the test system is yeast (Saccharomyces cerevisiae) that inducibly expresses ERG6. Description: Cycloheximide sensitivity of the strain that inducibly expresses ERG6. In kind it is cell-based. To be noted: 30° C., 2 days, various concentrations. As for the experimental part:
The following experiments were performed to confirm a difference in drug resistance of yeast that inducibly expresses ergosterol depending on presence or absence of induction.
It was confirmed that the drug sensitivity was increased by turning off the expression of ergosterol.

Take `CN(Cc1cnc2nc(N)nc(N)c2n1)c1ccc(C(=O)N[C@@H](CCC(=O)O)C(=O)O)cc1` [Methotrexate]: the “growth inhibitory action against yeast” value in the experiment on yeast is listed as “has a growth inhibitory action against yeast”.
For `C[C@@H]1C[C@@H]([C@H](O)CC2CC(=O)NC(=O)C2)C(=O)[C@@H](C)C1` [cycloheximide], the cycloheximide sensitivity entry in experiment [1] (galactose medium (ERG6 induced)) is on record as “equal to that of a pdr1 pdr3-disrupted stain (ERG6 strain)”; in experiment [1] (glucose medium (ERG6 repressed)), “equal to that of a pdr1 pdr3 erg6-disrupted strain”.
